Active and inactive are the calls of the source. No cut-off for these calls is given here.
What was measured:
NCI-H226 = assay: Growth inhibition of human NCI-H226 cells incubated for 48 hrs by sulforhodamine B assay; format: functional; conditions: NCI-H226, 48 h; for TGI: read-out: pTGI (converted)
PC-3 = assay: Growth inhibition of human PC3 cells incubated for 48 hrs by sulforhodamine B assay; format: functional; conditions: PC-3, 48 h; for CC50: read-out: pLC50 (the source's name) (converted); for TGI: read-out: pTGI (converted)
HCT-116 = assay: Growth inhibition of human HCT116 cells incubated for 48 hrs by sulforhodamine B assay; format: functional; conditions: HCT-116, 48 h; for CC50: read-out: pLC50 (the source's name) (converted); for TGI: read-out: pTGI (converted)
CCRF-CEM = assay: Growth inhibition of human CCRF-CEM cells at 10^-5 M incubated for 48 hrs by sulforhodamine B assay relative to control; format: functional; conditions: read-out: GI
SK-MEL-2 = assay: Growth inhibition of human SK-MEL-2 cells incubated for 48 hrs by sulforhodamine B assay; format: functional; conditions: SK-MEL-2, 48 h; for CC50: read-out: pLC50 (the source's name) (converted); for TGI: read-out: pTGI (converted)
C6 [1] = assay: Cell cycle arrest in rat C6 cells assessed as decrease in cell population at S phase measured after 24 hrs by propidium iodide staining based flow cytometry analysis; format: functional
OVCAR-8 = assay: Growth inhibition of human OVCAR8 cells incubated for 48 hrs by sulforhodamine B assay; format: functional; conditions: OVCAR-8, 48 h; for CC50: read-out: pLC50 (the source's name) (converted); for TGI: read-out: pTGI (converted)
LOX IMVI = assay: Growth inhibition of human LOXIMVI cells incubated for 48 hrs by sulforhodamine B assay; format: functional; conditions: for TGI: read-out: pTGI (converted)
UACC-62 = assay: Growth inhibition of human UACC62 cells incubated for 48 hrs by sulforhodamine B assay; format: functional; conditions: UACC-62, 48 h; for CC50: read-out: pLC50 (the source's name) (converted); for TGI: read-out: pTGI (converted)
SR = assay: Growth inhibition of human SR cells incubated for 48 hrs by sulforhodamine B assay; format: functional; conditions: for TGI: read-out: pTGI (converted)
[2] = system: Panel NCI-60 (60 carcinoma cell lines); assay: Growth inhibition of human NCI60 cells at incubated for 48 hrs by sulforhodamine B assay; format: functional; conditions: for CC50: read-out: LC50 (the source's name)
IGROV-1 [3] = assay: Growth inhibition of human IGROV1 cells at 10^-5 M incubated for 48 hrs by sulforhodamine B assay relative to control; format: functional; conditions: IGROV-1, 48 h, read-out: GI
IGROV-1 [4] = assay: Growth inhibition of human IGROV1 cells incubated for 48 hrs by sulforhodamine B assay; format: functional; conditions: IGROV-1, 48 h; for CC50: read-out: pLC50 (the source's name) (converted); for TGI: read-out: pTGI (converted)
NCI/ADR-RES = assay: Growth inhibition of human NCI/ADR-RES cells incubated for 48 hrs by sulforhodamine B assay; format: functional; conditions: for CC50: read-out: pLC50 (the source's name) (converted); for TGI: read-out: pTGI (converted)
NCI-H522 = assay: Growth inhibition of human NCI-H522 cells incubated for 48 hrs by sulforhodamine B assay; format: functional; conditions: NCI-H522, 48 h; for CC50: read-out: pLC50 (the source's name) (converted); for TGI: read-out: pTGI (converted)
BT-549 = assay: Growth inhibition of human BT549 cells incubated for 48 hrs by sulforhodamine B assay; format: functional; conditions: BT-549, 48 h; for CC50: read-out: pLC50 (the source's name) (converted); for TGI: read-out: pTGI (converted)
TK-10 = assay: Growth inhibition of human TK10 cells incubated for 48 hrs by sulforhodamine B assay; format: functional; conditions: TK-10, 48 h; for CC50: read-out: pLC50 (the source's name) (converted); for TGI: read-out: pTGI (converted)
Malme-3M = assay: Growth inhibition of human MALME-3M cells incubated for 48 hrs by sulforhodamine B assay; format: functional; conditions: for CC50: read-out: pLC50 (the source's name) (converted); for TGI: read-out: pTGI (converted)
[5] = biological target: T1, Dihydrofolate reductase (Homo sapiens) (UniProt P00374); assay: Inhibition of human dihydrofolate reductase assessed as association constant by UV-Vis spectra based Benesi Hilebrand equation analysis
T1 sequence (whole entry): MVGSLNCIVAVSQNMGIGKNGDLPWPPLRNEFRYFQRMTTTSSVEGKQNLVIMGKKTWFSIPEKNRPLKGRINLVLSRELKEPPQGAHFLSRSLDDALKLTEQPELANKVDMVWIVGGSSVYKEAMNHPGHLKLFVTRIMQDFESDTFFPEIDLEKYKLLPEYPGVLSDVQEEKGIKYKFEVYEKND

C6 [6] = assay: Antiproliferative activity against rat C6 cells assessed as decrease in cell viability measured after 48 hrs by MTT assay; format: functional, cell-based; conditions: for IC50: C6, 48 h
U-251 = assay: Growth inhibition of human U251 cells incubated for 48 hrs by sulforhodamine B assay; format: functional; conditions: U-251, 48 h; for CC50: read-out: pLC50 (the source's name) (converted); for TGI: read-out: pTGI (converted)
T47D = assay: Growth inhibition of human T47D cells incubated for 48 hrs by sulforhodamine B assay; format: functional; conditions: for CC50: read-out: pLC50 (the source's name) (converted); for TGI: read-out: pTGI (converted)
Dihydrofolate reductase = biological target: T2, Dihydrofolate reductase (Homo sapiens, UniProt P00374); assay: Inhibition of human dihydrofolate reductase using dihydrofolic acid as substrate preincubated for 1 hr in presence of NADPH followed by substrate addition by enzyme immunoassay
T2 sequence (P00374 whole entry): T1 sequence (whole entry)

SW-620 = assay: Growth inhibition of human SW620 cells incubated for 48 hrs by sulforhodamine B assay; format: functional; conditions: SW-620, 48 h; for TGI: read-out: pTGI (converted)
C6 [7] = assay: Induction of morphological changes in rat C6 cells assessed as apperance of differentiated morphology with fine and elongated processes after 24 hrs by inverted microscopy analysis; format: functional, cell-based
[8] = biological target: T1, Dihydrofolate reductase (Homo sapiens); assay: Competitive inhibition of human dihydrofolate reductase at 30 uM using varying levels of dihydrofolic acid as substrate preincubated for 1 hr in presence of NADPH followed by substrate addition by Line weaver-Burk based double reciprocal plot analysis
C6 [9] = assay: Induction of morphological changes in rat C6 cells assessed as cellular senescence by measuring cell rounding with distorted morphology after 24 hrs by inverted microscopy analysis; format: functional, cell-based
[10] = read-out: pLC50 (the source's name) (converted)
[11] = read-out: LC50 (the source's name)

O=C(OC[C@@H]1CO1)c1cccc2c(=O)c3ccccc3[nH]c12
GI50 (NCI-H226): 1580 nM | TGI (NCI-H226): 3470 nM | GI50 (PC-3): 2040 nM | CC50 (PC-3): > 100 µM | TGI (PC-3): 8.32 µM | GI50 (HCT-116): 1120 nM | CC50 (HCT-116): > 100 µM | TGI (HCT-116): 8.71 µM | inhibition of growth at 10 µM (CCRF-CEM): 93% | GI50 (SK-MEL-2): 1950 nM | CC50 (SK-MEL-2): 7.41 µM | TGI (SK-MEL-2): 3800 nM | inhibition (C6 [1]): Active | GI50 (OVCAR-8): 1260 nM | CC50 (OVCAR-8): 41.7 µM | TGI (OVCAR-8): 5.37 µM | GI50 (LOX IMVI; read-out: pGI50 (converted)): 1510 nM | CC50 (LOX IMVI; [10]): 6.61 µM | TGI (LOX IMVI): 3160 nM | GI50 (UACC-62): 1580 nM | CC50 (UACC-62): 6.03 µM | TGI (UACC-62): 3090 nM | GI50 (SR; read-out: GI50): 300 nM | CC50 (SR; [11]): > 100 µM | GI50 (SR; read-out: pGI50 (converted)): 302 nM | CC50 (SR; [10]): > 100 µM | TGI (SR): 4.37 µM | GI50 [2]: 300 nM | TGI [2]: 1.2 µM | CC50 [2]: 38 µM | inhibition of growth at 10 µM (IGROV-1 [3]): 100% | GI50 (IGROV-1 [4]): 1550 nM | CC50 (IGROV-1 [4]): > 100 µM | TGI (IGROV-1 [4]): 5.62 µM | GI50 (NCI/ADR-RES): 1700 nM | CC50 (NCI/ADR-RES): > 100 µM | TGI (NCI/ADR-RES): 6.31 µM | GI50 (NCI-H522): 1620 nM | CC50 (NCI-H522): 8.71 µM | TGI (NCI-H522): 3720 nM | GI50 (BT-549): 1910 nM | CC50 (BT-549): > 100 µM | TGI (BT-549): 6.03 µM | GI50 (TK-10): 2340 nM | CC50 (TK-10): > 100 µM | TGI (TK-10): 6.76 µM | GI50 (Malme-3M): 1660 nM | CC50 (Malme-3M): 6.17 µM | TGI (Malme-3M): 3160 nM | Ka [5]: 1.6 ×10⁴ /M | inhibition (C6 [6]): Dose-dependent effect | IC50 (C6 [6]): 250 to 1500 nM | GI50 (U-251): 1820 nM | CC50 (U-251): 50.1 µM | TGI (U-251): 7.24 µM | GI50 (T47D): 2510 nM | CC50 (T47D): > 100 µM | TGI (T47D): 8.32 µM | IC50 (Dihydrofolate reductase): 10 nM | GI50 (SW-620; read-out: GI50): 830 nM | CC50 (SW-620; [11]): > 100 µM | GI50 (SW-620; read-out: pGI50 (converted)): 832 nM | CC50 (SW-620; [10]): > 100 µM | TGI (SW-620): 12.9 µM | Activity (C6 [7]): Active | inhibition [8]: Active

O=c1c2ccccc2n(CC2CO2)c2ccccc12 (racemic)
GI50 (NCI-H226): 302 nM | CC50 (NCI-H226; [10]): > 100 µM | TGI (NCI-H226): 1480 nM | GI50 (PC-3): 331 nM | CC50 (PC-3): > 100 µM | TGI (PC-3): 4.79 µM | GI50 (HCT-116): 126 nM | CC50 (HCT-116): > 100 µM | TGI (HCT-116): 10 µM | inhibition of growth at 10 µM (CCRF-CEM): 93% | GI50 (SK-MEL-2): 234 nM | CC50 (SK-MEL-2): 2.04 µM | TGI (SK-MEL-2): 513 nM | GI50 (OVCAR-8): 148 nM | CC50 (OVCAR-8): > 100 µM | TGI (OVCAR-8): 1.32 µM | GI50 (LOX IMVI; read-out: GI50): 120 nM | CC50 (LOX IMVI; [11]): 5.12 µM | GI50 (LOX IMVI; read-out: pGI50 (converted)): 126 nM | CC50 (LOX IMVI; [10]): 5.13 µM | TGI (LOX IMVI): 646 nM | GI50 (UACC-62): 234 nM | CC50 (UACC-62): 2.4 µM | TGI (UACC-62): 603 nM | GI50 (SR; read-out: GI50): 50 nM | CC50 (SR; [11]): > 100 µM | GI50 (SR; read-out: pGI50 (converted)): 50.1 nM | CC50 (SR; [10]): > 100 µM | TGI (SR): 1.86 µM | GI50 [2]: 1600 nM | TGI [2]: 5.6 µM | CC50 [2]: 44.4 µM | inhibition of growth at 10 µM (IGROV-1 [3]): 100% | GI50 (IGROV-1 [4]): 331 nM | CC50 (IGROV-1 [4]): 67.6 µM | TGI (IGROV-1 [4]): 2.57 µM | Activity (C6 [9]): Active | GI50 (NCI/ADR-RES): 257 nM | CC50 (NCI/ADR-RES): > 100 µM | TGI (NCI/ADR-RES): 1.1 µM | GI50 (NCI-H522): 372 nM | CC50 (NCI-H522): 19.5 µM | TGI (NCI-H522): 1320 nM | GI50 (BT-549): 339 nM | CC50 (BT-549): 66.1 µM | TGI (BT-549): 3.16 µM | GI50 (TK-10): 479 nM | CC50 (TK-10): > 100 µM | TGI (TK-10): 3.09 µM | GI50 (Malme-3M): 589 nM | CC50 (Malme-3M): 4.9 µM | TGI (Malme-3M): 2000 nM | Ka [5]: 1.4 ×10⁴ /M | inhibition (C6 [6]): Dose-dependent effect | IC50 (C6 [6]): 250 to 1500 nM | GI50 (U-251): 282 nM | CC50 (U-251): > 100 µM | TGI (U-251): 1.35 µM | GI50 (T47D): 891 nM | CC50 (T47D): > 100 µM | TGI (T47D): 5.5 µM | IC50 (Dihydrofolate reductase): 20 nM | GI50 (SW-620; read-out: GI50): 50 nM | CC50 (SW-620; [11]): > 0.05 µM | GI50 (SW-620; read-out: pGI50 (converted)): 56.2 nM | CC50 (SW-620; [10]): > 100 µM | TGI (SW-620): 1.2 µM

— ChEMBL document CHEMBL4359904, “Structural tuning of acridones for developing anticancer agents targeting dihydrofolate reductase” (Bioorg Med Chem Lett, 2019)
